The target of test [1] is DCN1 (DCUND1) protein PONY domain (Homo sapiens (Human), UniProt Q96GG9). The test is described as follows: TR-FRET assay (binding to DCN-1, displacement of FAM-labeled probe). In short, it runs like this: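 Compounds read at 1, 5 and 24 h, 0.1% final DMSO, by TR-FRET between terbium-streptavidin on biotinylated DCN1 PONY domain (E. coli) and a FAM-tagged non-covalent inhibitor probe. Two setups used, 5 nM protein with 20 nM labelled probe, or 0.31 nM protein with 100 nM labelled plus 800 nM unlabelled probe; buffer had TritonX and 200 mM NaCl. % activity relative to high (with probe) and low (without probe) controls.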
Chain of DCN1 (DCUND1) protein PONY domain (Q96GG9 60-248): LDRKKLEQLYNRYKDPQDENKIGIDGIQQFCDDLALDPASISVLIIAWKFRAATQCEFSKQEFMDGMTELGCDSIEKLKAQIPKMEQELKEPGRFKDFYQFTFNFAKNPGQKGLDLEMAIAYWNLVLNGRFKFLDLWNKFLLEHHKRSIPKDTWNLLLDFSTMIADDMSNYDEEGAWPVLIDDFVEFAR
Background: Time-resolved FRET reads energy transfer from a long-lived donor to a nearby acceptor.

Test [2] addresses DCN1 protein (Homo sapiens (Human), UniProt Q96GG9). Nature of the test: Intact protein MS analysis with the RapidFire-TOF system (covalent adduct formation). The following applies: 400 nM DCN1, incubated at room temperature for 3 hours. The class given is binding. In outline: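 Tag-free His-TEV-DCN1 expressed in E. coli at 400 nM in 25 mM Tris-HCl, 200 mM NaCl, 1 mM DTT, incubated with 11 compound concentrations at room temperature for 3 h unless otherwise specified. Quenched with 0.2% formic acid; intact-protein RapidFire Q-TOF MS, deconvoluted to detect parent and compound-adduct masses.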

The mark [3] stands for this setting: 24 hr after treatment with compound, read-out: TR FRET IC50 24 hr.
The mark [4] stands for this setting: TR FRET IC50 1 hr (nM), 1 hr after treatment with compound.
Setting [5] is: read-out: TR FRET IC50 1 hr, 1 hr after treatment with compound.

20 molecules from patent US12435087B2, “Modulators of DCN-1 and methods of use thereof” (Cellarity, Inc., priority 2023, dated 2025) can be followed below.

Where two headings read alike, the source gives them in different places.

Usually IC50 stands for the midpoint of a concentration-inhibition curve. For orientation: Emax means the greatest response seen or fitted, relative to the assay's reference.

Chain of DCN1 protein (Q96GG9 whole entry): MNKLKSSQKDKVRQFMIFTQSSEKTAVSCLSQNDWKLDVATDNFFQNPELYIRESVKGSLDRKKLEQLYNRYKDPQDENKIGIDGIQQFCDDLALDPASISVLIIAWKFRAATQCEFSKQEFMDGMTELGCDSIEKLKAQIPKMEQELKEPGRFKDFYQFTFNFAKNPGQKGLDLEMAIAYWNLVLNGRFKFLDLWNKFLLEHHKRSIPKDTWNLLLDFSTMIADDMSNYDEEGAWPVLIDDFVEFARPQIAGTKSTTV

Consider `CCN1C(=O)[C@H](NC(=O)c2cccc(C(F)(F)F)c2)[C@@H](c2cccc(NC(=O)/C(C#N)=C/C(C)(C)C)c2)c2c(C)nn(-c3ccccc3)c21` (racemic) [Compound I-69, ˜{N}—[˜{rac}-(4˜{S},5˜{R})-7-ethyl-3-methyl-6-oxo-1-phenyl-4-[3-[[˜{rac}-(˜{E})-2-cyano-4,4-dimethyl-pent-2-enoyl]amino]phenyl]-4,5-dihydropyrazolo[3,4-b]pyridin-5-yl]-3-(trifluoromethyl)benzamide], for which the IC50 in test [1] (setting [3]) and in test [1] (setting [4]) was 200 to 1000 nM in each case. The molecule also returned an Emax in test [2] of 80 to 100%.
On to `C=CC(=O)Nc1cccc([C@H]2c3c(C)nn(-c4ccccc4)c3N(CC)C(=O)[C@@H]2NC(=O)c2cccc(C(F)(F)F)c2)c1` (racemic) [Compound I-77], for which the figures for the IC50 in test [1] (setting [3]) and in test [1] (setting [4]) were 200 to 1000 nM and 1000 to 3000 nM, respectively. The Emax in test [2] is 80 to 100%.
In the same order, the values of `CCN1C(=O)[C@H](NC(=O)c2cccc(C(F)(F)F)c2)[C@@H](c2cccc(NC(=O)C3=CCC3)c2)c2c(C)nn(-c3ccccc3)c21` (racemic) [Compound I-78, ˜{N}—[˜{rac}-(4˜{S},5˜{R})-4-[3-(cyclobutene-1-carbonylamino)phenyl]-7-ethyl-3-methyl-6-oxo-1-phenyl-4,5-dihydropyrazolo[3,4-b]pyridin-5-yl]-3-(trifluoromethyl)benzamide] are 200 to 1000 nM, 1000 to 3000 nM and 80 to 100%.
In the same order, the values of `CCN1C(=O)[C@H](NC(=O)c2cccc(C(F)(F)F)c2)[C@@H](c2cccc(NC(=O)CC#N)c2)c2c(C)nn(-c3ccccc3)c21` (racemic) [Compound I-103] are 1000 to 3000 nM, 1000 to 3000 nM and 0 to 30%.
For the molecule `CCN1C(=O)[C@H](NC(=O)c2cccc(C(F)(F)F)c2)[C@@H](c2cccc(N3CC=CS3(=O)=O)c2)c2c(C)nn(-c3ccccc3)c21` (racemic) [Compound I-130, rac-N-((4R,5S)-4-(3-(1,1-dioxidoisothiazol-2 (3H)-yl)phenyl)-7-ethyl-3-methyl-6-oxo-1-phenyl-4,5,6,7-tetrahydro-1H-pyrazolo[3,4-b]pyridin-5-yl)-3-(trifluoromethyl)benzamide], the figures for the IC50 in test [1] (setting [3]) and in test [1] (setting [4]) were 200 to 1000 nM and > 3000 nM, respectively. In test [2], this molecule gave an Emax of 0 to 30%.
In the same order, the values of `CCN1C(=O)[C@H](NC(=O)c2cccc(C(F)(F)F)c2)[C@@H](c2cccc(NC(=O)C#CCN(C)C)c2)c2c(C)nn(-c3ccccc3)c21` (racemic) [Compound I-133, rac-N-((4R,5S)-4-(3-(4-(dimethylamino)but-2-ynamido)phenyl)-7-ethyl-3-methyl-6-oxo-1-phenyl-4,5,6,7-tetrahydro-1H-pyrazolo[3,4-b]pyridin-5-yl)-3-(trifluoromethyl)benzamide] are ≤ 200 nM, ≤ 200 nM and 80 to 100%.
As to `C=C(CN1CCC1)C(=O)Nc1cccc([C@H]2c3c(C)nn(-c4ccccc4)c3N(CC)C(=O)[C@@H]2NC(=O)c2cccc(C(F)(F)F)c2)c1` (racemic) [Compound I-137], the IC50 in test [1] (setting [3]) and in test [1] (setting [5]) was ≤ 200 nM each time. Also, the Emax in test [2] was in the range of 80 to 100%.
On to `CCN1C(=O)[C@H](NC(=O)c2cccc(C(F)(F)F)c2)[C@@H](c2cccc(NC(=O)/C=C/C(=O)OC)c2)c2c(C)nn(-c3ccccc3)c21` (racemic) [Compound I-141], for which the IC50 in test [1] (setting [3]) and in test [1] (setting [5]) was ≤ 200 nM in each case. Moreover, the Emax in test [2] was 80 to 100%.
Turning to `C/C=C(\CN1CCOCC1)C(=O)Nc1cccc([C@@H]2c3c(C)nn(-c4ccccc4)c3N(CC)C(=O)[C@H]2NC(=O)c2cccc(C(F)(F)F)c2)c1` (racemic) [Compound I-142], the IC50 in test [1] (setting [3]) and in test [1] (setting [4]) was ≤ 200 nM in each case. Further, the Emax in test [2] fell in the range of 80 to 100%.
For `C=C(CN(C)C)C(=O)Nc1cccc([C@H]2c3c(C)nn(-c4ccccc4)c3N(CC)C(=O)[C@@H]2NC(=O)c2cccc(C(F)(F)F)c2)c1` (racemic) [Compound I-146], the IC50 in test [1] (setting [3]) and in test [1] (setting [5]) was ≤ 200 nM throughout. In test [2], this molecule returned an Emax of 80 to 100%.
As to `CC#CC(=O)Nc1ccccc1[C@H]1c2cnn(-c3ccccc3)c2N(CC)C(=O)[C@@H]1NC(=O)c1cccc(C(F)(F)F)c1` (racemic) [Compound I-159], the IC50 in test [1] (setting [3]) and in test [1] (setting [4]) was > 3000 nM each time. Moreover, in test [2], the Emax was in the range of 0 to 30%.
As for `C/C=C(\CN1CCN(C2COC2)CC1)C(=O)Nc1cccc([C@@H]2c3c(C)nn(-c4ccccc4)c3N(CC)C(=O)[C@H]2NC(=O)c2nccc(C(F)(F)F)n2)c1` (racemic) [Compound I-229], the IC50 in test [1] (setting [3]) and in test [1] (setting [4]) was ≤ 200 nM in each case. The Emax in test [2] lay in the range of 80 to 100%.
With `C=C(CN1CCOCC1)C(=O)Nc1cccc([C@H]2c3c(C)nn(-c4ccccc4)c3N(CC)C(=O)C2NC(=O)c2cccc(C(F)(F)F)c2)c1` (stereo in doubt) [Compound I-83, N-((4S,5R)-7-ethyl-3-methyl-4-(3-(2-(morpholinomethyl)acrylamido)phenyl)-6-oxo-1-phenyl-4,5,6,7-tetrahydro-1H-pyrazolo[3,4-b]pyridin-5-yl)-3-(trifluoromethyl)benzamide], the IC50 in test [1] (setting [3]) and in test [1] (setting [5]) was ≤ 200 nM throughout. For the same molecule, the “% Adduct Formation (MS Emax)” value in test [2] was “++ (MS Emax % adduct formation greater than 30.0 and less than or equal to 80.0)”.
On to `C=C(CN1CCC1)C(=O)NCc1cccc([C@@H]2c3cnn(-c4ccccc4)c3N(CC)C(=O)[C@H]2NC(=O)c2cccc(C(F)(F)F)c2)c1` [Compound I-1], for which the IC50 in test [1] (setting [3]) and in test [1] (setting [5]) was ≤ 200 nM in each case. Further, in test [2], the Emax was 80 to 100%.
For `C=C(CN1CCN(C2COC2)CC1)C(=O)NCc1cccc([C@@H]2c3cnn(-c4ccccc4)c3N(CC)C(=O)[C@H]2NC(=O)c2cccc(C(F)(F)F)c2)c1` [Compound I-4], the IC50 in test [1] (setting [3]) and in test [1] (setting [5]) was ≤ 200 nM throughout. In addition, the Emax in test [2] fell in the range of 80 to 100%.
Consider `C=C(CN1CC2(COC2)C1)C(=O)NCc1cccc([C@@H]2c3cnn(-c4ccccc4)c3N(CC)C(=O)[C@H]2NC(=O)c2cccc(C(F)(F)F)c2)c1` [Compound I-6], for which the IC50 in test [1] (setting [3]) and in test [1] (setting [5]) was ≤ 200 nM in each case. The Emax in test [2] is 80 to 100%.
On to `C=C(CN1CC(F)(F)C1)C(=O)NCc1cccc([C@@H]2c3cnn(-c4ccccc4)c3N(CC)C(=O)[C@H]2NC(=O)c2cccc(C(F)(F)F)c2)c1` [Compound I-14], for which the IC50 in test [1] (setting [3]) and in test [1] (setting [5]) was ≤ 200 nM in each case. In test [2], this molecule returned an Emax of 80 to 100%.
On to `CCN1C(=O)[C@@H](NC(=O)c2cccc(C(F)(F)F)c2)[C@H](c2cccc(NC(=O)C3=C(C(=O)OC)CC3)c2)c2c(C)nn(-c3ccccc3)c21` [Compound I-34], for which the IC50 in test [1] (setting [3]) and in test [1] (setting [5]) was ≤ 200 nM throughout. The same molecule came in with an Emax in test [2] of 80 to 100%.
On to `C=C(CN1CCC(F)(F)C1)C(=O)NCc1cccc([C@@H]2c3cnn(-c4ccccc4)c3N(CC)C(=O)[C@H]2NC(=O)c2cccc(C(F)(F)F)c2)c1` [Compound I-44], for which the IC50 in test [1] (setting [3]) was ≤ 200 nM; in test [1] (setting [4]), 200 to 1000 nM. Besides, the Emax in test [2] is 80 to 100%.
Take `C=C(CN1CCOCC1)C(=O)NCc1cccc([C@@H]2c3cnn(-c4ccccc4)c3N(CC)C(=O)[C@H]2NC(=O)c2cccc(C(F)(F)F)c2)c1` [Compound I-62]: the IC50 in test [1] (setting [3]) and in test [1] (setting [5]) was ≤ 200 nM each time. Further, the Emax in test [2] was 80 to 100%.
